Source: ChEMBL document CHEMBL1201862, “PubChem BioAssay data set” (2004)
The source made the active and inactive calls.

How the values were obtained:
[1] = target: T1, COUP transcription factor 2 (Homo sapiens, UniProt P24468); assay: Luminescence-based cell-based high throughput dose response assay to identify inhibitors of COUP-TFII (NR2F2).; type: functional;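 note: HEK293 cells transiently cotransfected with COUP-TFII expression vector and reporter; luciferase reporter luminescence driven by COUP-TFII from the pX2-168 reporter plasmid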
T1 sequence (P24468 whole entry): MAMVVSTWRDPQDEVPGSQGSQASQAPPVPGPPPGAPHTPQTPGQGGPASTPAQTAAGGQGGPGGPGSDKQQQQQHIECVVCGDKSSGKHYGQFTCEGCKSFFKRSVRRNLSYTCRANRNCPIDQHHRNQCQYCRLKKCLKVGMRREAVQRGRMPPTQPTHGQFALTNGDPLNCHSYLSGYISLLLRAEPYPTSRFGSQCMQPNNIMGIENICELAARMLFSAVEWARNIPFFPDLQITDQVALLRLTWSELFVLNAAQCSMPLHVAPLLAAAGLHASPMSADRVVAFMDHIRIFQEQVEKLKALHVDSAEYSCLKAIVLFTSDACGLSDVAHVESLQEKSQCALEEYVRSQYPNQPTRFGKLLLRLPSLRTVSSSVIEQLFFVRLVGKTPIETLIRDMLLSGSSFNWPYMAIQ

[2] = inhibitors of PGC1a acetylation in cells, dose response, cell-based, cherry-picked samples (AID 720514); type: functional;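 note: potency may reflect raised or lowered acetylation signal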
[3] = human group III sPLA2 inhibitors, dose response, biochemical, QFRET, IC50 (AID 743457);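 note: green fluorescence rise as the enzyme cleaves BODIPY PC-A2 in liposomes; potency for inhibition of the enzyme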
[4] = cells; type: functional, cell-based
[5] = target: T2, Trace amine-associated receptor 1 (Homo sapiens, UniProt Q96RJ0); assay: Fluorescence-based cell-based high throughput dose response assay to identify agonists of the human trace amine associated receptor 1 (TAAR1).; type: functional
T2 sequence (Q96RJ0 whole entry): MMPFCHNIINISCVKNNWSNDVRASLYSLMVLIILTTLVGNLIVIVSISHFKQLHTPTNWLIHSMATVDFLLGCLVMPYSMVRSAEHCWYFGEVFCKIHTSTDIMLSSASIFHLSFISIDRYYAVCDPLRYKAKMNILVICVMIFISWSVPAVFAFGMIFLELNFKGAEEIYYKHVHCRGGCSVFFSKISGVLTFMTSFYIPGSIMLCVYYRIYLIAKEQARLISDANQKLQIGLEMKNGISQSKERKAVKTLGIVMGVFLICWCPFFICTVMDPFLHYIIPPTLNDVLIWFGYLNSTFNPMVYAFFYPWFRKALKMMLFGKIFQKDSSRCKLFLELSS

[6] = target: T2, Trace amine-associated receptor 1; assay: Counterscreen for agonists of the human trace amine associated receptor 1 (hTAAR1): Fluorescence-based cell-based high throughput dose response assay to identify hTAAR1 agonist that also desensitize TAAR1 receptor response.; type: functional
[7] = cells; type: functional, cell-based; remark: listed apart in the source
[8] = tested on: HEK293; assay: NOD1 signaling inhibitors, primary screen, cell-based, luminescence, uHTS (AID 1578); type: functional; settings: Homo sapiens
[9] = tested on: HEK293; assay: cells; type: functional, cell-based; settings: Homo sapiens
[10] = tested on: HEK293; assay: cells; type: functional, cell-based; settings: Homo sapiens; remark: listed apart in the source
[11] = tested on: HEK293; assay: NOD2 signaling inhibitors in MDP-stimulated cells, cell-based, uHTS, luminescence (AID 2001); type: functional; settings: Homo sapiens
[12] = target: Tumor necrosis factor (Homo sapiens, UniProt P01375); assay: TNFa-triggered NF-kB activation inhibitors, SAR follow-up, cell-based, revised (AID 2337); type: functional
[13] = target: T3, Nucleotide-binding oligomerization domain-containing protein 1 (Homo sapiens, UniProt Q9Y239); assay: NOD1 signaling inhibitors, SAR follow-up, revised (AID 2333); type: functional
T3 sequence (Q9Y239 whole entry): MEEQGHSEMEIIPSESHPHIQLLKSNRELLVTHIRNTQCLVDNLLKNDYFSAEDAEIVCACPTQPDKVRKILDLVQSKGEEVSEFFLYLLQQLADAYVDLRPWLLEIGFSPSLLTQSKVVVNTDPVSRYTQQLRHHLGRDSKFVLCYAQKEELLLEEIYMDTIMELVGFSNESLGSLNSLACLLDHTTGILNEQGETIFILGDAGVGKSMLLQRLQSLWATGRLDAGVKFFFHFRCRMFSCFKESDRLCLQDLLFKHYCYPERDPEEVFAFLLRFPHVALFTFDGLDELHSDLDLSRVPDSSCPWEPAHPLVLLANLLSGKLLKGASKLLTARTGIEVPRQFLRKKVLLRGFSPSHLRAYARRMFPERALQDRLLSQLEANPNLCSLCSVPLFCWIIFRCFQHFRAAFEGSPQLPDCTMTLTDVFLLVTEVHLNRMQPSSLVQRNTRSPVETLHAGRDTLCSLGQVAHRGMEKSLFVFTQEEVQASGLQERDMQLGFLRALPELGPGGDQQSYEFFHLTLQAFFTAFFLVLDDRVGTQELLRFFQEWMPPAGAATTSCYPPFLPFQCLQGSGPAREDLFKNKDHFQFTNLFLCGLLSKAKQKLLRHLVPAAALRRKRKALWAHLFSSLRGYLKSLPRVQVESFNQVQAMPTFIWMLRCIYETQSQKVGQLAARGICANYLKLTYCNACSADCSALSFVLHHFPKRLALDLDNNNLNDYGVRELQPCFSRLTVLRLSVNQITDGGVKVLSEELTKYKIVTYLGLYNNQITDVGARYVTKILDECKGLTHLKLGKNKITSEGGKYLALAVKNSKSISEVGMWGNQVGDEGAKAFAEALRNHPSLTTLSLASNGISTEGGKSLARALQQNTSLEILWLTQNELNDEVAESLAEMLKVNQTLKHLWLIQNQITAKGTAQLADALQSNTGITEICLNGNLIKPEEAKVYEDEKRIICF

[14] = tested on: INS1; assay: beta cell apoptosis inhibitors, cytokine rescue, dose response, luminescence, retest (AID 449756); type: functional, cell-based; settings: Rattus norvegicus;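 note: cell death triggered by IL-1 beta plus TNF-alpha plus IFN-gamma mixture; protective hits raise ATP signal compared with cytokine alone wells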
[15] = Shn3 3'UTR reporter inhibitors, dose response, cell-based, Clone20 osteoblasts, firefly luciferase, cherry-picked (AID 624132); type: functional;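 note: firefly luciferase luminescence from reporter carrying the Shn3 3'UTR in osteoblasts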
[16] = control 3'UTR Renilla luciferase suppression, dose response, counter-screen for Shn3 inhibitor project, cell-based, Clone20-Shn3RL, cherry-picked (AID 624133); type: functional
[17] = tested on: HEK293; assay: cells; settings: Homo sapiens
[18] = target: T4, RNA-binding protein pos-1 (Caenorhabditis elegans, UniProt G5EF15); assay: inhibitors of POS-1/mex-3 RNA binding, dose response, biochemical, fluorescence polarization (AID 1964);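 note: purified POS-1 fused to maltose binding protein made in E. coli; potency of compounds blocking POS-1 binding to fluorescent RNA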
T4 sequence (G5EF15 whole entry): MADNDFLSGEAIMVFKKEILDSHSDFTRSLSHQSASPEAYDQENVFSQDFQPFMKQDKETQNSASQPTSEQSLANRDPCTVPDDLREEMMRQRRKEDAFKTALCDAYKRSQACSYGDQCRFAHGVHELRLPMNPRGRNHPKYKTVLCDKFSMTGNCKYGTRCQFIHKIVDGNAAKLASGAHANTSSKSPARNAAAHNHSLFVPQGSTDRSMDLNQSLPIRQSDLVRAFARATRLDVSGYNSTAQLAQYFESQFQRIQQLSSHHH

[19] = target: T5, Zinc finger protein mex-5 (Caenorhabditis elegans, UniProt Q9XUB2); assay: MEX-5/TCR-2 RNA interaction inhibitors, dose response, biochemical, C. elegans, fluorescence polarization (AID 1960)
T5 sequence (Q9XUB2 whole entry): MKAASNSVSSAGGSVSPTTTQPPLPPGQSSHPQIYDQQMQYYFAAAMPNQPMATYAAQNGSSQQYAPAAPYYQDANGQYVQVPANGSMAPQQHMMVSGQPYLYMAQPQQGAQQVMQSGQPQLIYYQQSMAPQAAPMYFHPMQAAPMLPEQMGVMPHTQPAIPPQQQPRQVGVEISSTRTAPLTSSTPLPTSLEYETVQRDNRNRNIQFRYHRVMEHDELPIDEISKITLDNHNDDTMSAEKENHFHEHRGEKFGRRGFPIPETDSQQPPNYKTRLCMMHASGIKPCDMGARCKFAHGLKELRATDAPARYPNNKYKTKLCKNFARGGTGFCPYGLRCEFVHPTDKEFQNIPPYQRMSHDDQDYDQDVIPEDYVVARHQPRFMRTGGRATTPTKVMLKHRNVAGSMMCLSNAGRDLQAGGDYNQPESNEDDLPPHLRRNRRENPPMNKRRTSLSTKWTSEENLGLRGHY

[20] = target: Beta-lactamase (Pseudomonas aeruginosa, UniProt Q79MP6);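 note: biochemical dose-response test of metallo-beta-lactamase enzyme inhibition, read out by epi-absorbance; purified recombinant IMP-1 metallo-beta-lactamase with nitrocefin as substrate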
[21] = target: Beta-lactamase (Salmonella choleraesuis (strain SC-B67), UniProt Q5J463)
[22] = target: Voltage-dependent T-type calcium channel subunit alpha-1H (Homo sapiens, UniProt O95180); type: functional;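 note: channel activity triggered by adding a high calcium stimulation buffer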
[23] = inhibitors of HIV Env-driven cell fusion, dose response, cherry-pick (AID 652057); type: functional, cell-based
[24] = CEM21 lymphoblast cell cytotoxicity, dose response, cytotoxicity control for viral fusion inhibitor project, CellTiter-Glo luminescence, cherry-picked (AID 652042); type: functional, cell-based;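 note: potency for signal decrease meaning cytotoxicity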
[25] = ZM109 Env clade C HIV-1 fusion inhibitors, dose response, HeLa effector, CEM target cells, luciferase, cherry-pick (AID 652058); type: functional, cell-based
[26] = off-target signal loss in HeLa-CEM21 co-culture – HeLa F-luc CTL cells, cherry-picked, counter-screen for HIV-1 Env fusion inhibitor project, dose response (AID 652040); type: functional, cell-based;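 note: potency for signal decrease marking cytotoxic or nonspecific inhibition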
[27] = inhibitors of clade B AD8 Env fusion, dose response, cell-based, cherry-pick (AID 652062); type: functional;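 note: luciferase signal from cell-cell fusion driven by HIV-1 clade B AD8 Env; potency is for inhibitors of fusion seen as a drop in luminescence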

Beta-lactamase (Pseudomonas aeruginosa, UniProt Q79MP6), sequence (Q79MP6 whole entry): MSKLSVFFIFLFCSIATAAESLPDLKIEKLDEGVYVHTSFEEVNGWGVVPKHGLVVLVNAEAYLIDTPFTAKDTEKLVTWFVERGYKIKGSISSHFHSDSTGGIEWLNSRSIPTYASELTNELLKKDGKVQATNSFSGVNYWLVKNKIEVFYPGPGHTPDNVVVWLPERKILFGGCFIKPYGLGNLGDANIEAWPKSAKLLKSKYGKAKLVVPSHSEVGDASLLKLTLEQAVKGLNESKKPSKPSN
Voltage-dependent T-type calcium channel subunit alpha-1H, sequence (O95180 whole entry, the tested form may be a part): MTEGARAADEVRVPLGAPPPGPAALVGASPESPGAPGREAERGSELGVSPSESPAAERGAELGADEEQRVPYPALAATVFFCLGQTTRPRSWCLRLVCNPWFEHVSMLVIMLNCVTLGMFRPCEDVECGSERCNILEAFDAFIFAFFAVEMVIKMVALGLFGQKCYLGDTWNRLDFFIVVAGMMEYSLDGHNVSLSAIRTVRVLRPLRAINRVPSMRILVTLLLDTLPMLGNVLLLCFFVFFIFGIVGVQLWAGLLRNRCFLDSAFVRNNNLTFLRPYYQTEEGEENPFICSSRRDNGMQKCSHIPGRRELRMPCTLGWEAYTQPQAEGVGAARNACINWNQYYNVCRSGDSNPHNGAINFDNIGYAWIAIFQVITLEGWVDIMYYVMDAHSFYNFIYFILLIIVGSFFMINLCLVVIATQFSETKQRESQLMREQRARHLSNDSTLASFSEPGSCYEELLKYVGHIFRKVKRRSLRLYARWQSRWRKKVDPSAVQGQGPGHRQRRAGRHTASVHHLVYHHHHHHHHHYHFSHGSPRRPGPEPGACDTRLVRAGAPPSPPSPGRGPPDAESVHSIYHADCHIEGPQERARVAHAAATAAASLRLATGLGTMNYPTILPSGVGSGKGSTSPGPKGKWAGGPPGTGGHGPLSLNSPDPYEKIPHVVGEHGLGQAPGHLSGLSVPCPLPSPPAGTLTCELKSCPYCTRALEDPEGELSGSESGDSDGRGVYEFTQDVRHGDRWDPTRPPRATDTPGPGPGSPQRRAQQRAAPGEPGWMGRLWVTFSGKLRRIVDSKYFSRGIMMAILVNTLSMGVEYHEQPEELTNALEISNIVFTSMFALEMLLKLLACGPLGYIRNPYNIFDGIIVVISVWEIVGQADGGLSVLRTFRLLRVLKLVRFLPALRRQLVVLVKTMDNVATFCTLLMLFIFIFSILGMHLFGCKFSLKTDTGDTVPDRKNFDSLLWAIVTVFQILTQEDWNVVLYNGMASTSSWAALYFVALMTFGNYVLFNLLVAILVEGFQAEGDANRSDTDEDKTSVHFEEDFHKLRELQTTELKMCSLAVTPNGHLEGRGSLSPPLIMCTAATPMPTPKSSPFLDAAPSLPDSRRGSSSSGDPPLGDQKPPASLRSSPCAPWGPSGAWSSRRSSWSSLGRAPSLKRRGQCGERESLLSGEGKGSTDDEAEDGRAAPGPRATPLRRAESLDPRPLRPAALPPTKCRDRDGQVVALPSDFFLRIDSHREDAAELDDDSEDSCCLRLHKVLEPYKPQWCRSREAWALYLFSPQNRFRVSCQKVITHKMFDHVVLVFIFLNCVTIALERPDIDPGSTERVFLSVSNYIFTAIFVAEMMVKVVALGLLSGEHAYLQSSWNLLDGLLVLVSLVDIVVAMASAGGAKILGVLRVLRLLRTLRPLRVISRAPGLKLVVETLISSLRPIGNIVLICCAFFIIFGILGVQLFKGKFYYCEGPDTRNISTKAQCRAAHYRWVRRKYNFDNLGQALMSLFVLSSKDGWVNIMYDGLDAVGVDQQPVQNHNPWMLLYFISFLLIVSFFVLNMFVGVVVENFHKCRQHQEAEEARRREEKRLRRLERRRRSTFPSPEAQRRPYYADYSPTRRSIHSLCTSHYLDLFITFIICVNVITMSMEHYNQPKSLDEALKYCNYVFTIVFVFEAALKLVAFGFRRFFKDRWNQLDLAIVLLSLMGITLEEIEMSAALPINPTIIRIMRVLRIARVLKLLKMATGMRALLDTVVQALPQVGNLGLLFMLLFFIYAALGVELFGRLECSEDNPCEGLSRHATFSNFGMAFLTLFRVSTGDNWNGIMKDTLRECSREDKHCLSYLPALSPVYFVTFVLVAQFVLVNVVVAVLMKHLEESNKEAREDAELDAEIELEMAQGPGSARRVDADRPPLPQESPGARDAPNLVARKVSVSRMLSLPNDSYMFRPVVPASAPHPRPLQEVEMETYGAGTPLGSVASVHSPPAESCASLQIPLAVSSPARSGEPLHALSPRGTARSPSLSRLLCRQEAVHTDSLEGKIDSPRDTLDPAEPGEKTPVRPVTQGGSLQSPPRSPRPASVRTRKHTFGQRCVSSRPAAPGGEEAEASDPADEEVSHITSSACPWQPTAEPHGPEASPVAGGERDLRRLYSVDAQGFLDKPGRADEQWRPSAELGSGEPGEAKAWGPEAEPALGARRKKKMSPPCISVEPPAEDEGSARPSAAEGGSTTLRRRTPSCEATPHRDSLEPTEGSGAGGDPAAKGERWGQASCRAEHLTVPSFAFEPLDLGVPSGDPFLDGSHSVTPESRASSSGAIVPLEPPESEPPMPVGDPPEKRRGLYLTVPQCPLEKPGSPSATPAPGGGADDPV
Tumor necrosis factor, sequence (P01375 whole entry, the tested form may be a part): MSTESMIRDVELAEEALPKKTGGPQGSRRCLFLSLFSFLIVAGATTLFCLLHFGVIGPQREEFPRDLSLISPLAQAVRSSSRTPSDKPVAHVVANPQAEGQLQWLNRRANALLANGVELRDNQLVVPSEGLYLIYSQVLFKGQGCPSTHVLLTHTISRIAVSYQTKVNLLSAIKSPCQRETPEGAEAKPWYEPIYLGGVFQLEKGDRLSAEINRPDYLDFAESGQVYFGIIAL
Beta-lactamase (Salmonella choleraesuis (strain SC-B67), UniProt Q5J463), sequence (Q5J463 whole entry): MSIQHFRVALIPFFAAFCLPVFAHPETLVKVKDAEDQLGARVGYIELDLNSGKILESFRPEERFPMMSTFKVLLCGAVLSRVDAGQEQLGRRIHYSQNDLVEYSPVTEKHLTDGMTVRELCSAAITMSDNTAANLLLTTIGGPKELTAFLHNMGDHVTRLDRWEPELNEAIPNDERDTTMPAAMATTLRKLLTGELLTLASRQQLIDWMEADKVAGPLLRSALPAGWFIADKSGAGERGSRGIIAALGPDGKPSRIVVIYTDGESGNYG

With CC(=O)N[C@@H](C)c1nc2ccccc2n1CCCN1CCN(c2nc(-c3ccc(C)cc3)cs2)CC1 the IC50 [1] was 6.84 µM (active).
For COc1cccc(-n2c(Cc3cc(O)nc(O)n3)nnc2SCc2cccc(C(F)(F)F)c2)c1, the AC50 [2] was 35.1 µM (active).
In the case of O=C(CNc1cccc(Cl)c1)NNC(=S)NCc1ccccc1, the IC50 [3] is reported as > 122 µM (inactive).
With Clc1ccc(CCNCc2ccncc2)c(Cl)c1 the IC50 [4] was > 29.9 µM (inactive), the EC50 [5] was 2.01 µM (active) and the IC50 [6] was 6.77 µM (active). The EC50 [7] was > 29.9 µM (inactive).
For Cc1cc(C(=O)NC2CCCc3c2cnn3-c2cccc(C)c2C)n(C)n1 (stereo not drawn), the EC50 [8] was 170 nM (active), the IC50 [9] was 922 nM (active) and the IC50 [10] was > 20 µM (inactive). For the same compound, the IC50 [11] was 609 nM (inactive), the IC50 [12] was 703 nM (active) and the IC50 [13] was 289 nM (active). The AC50 [14] was 216 nM (active), the AC50 [15] was < 260 nM (active) and the AC50 [16] was < 260 nM (active). For the same compound, the IC50 [1] was 0.628 µM (active) and the IC50 [17] was > 20 µM (inactive).
In the case of CCCCCCn1c(=O)[nH]c2nc3cc(N)ccc3nc2c1=O, the EC50 [18] is reported as > 300 µM (inconclusive), the EC50 [19] is reported as > 300 µM (inconclusive) and the IC50 [20] is reported as > 59.6 µM (inactive). For the same compound, the IC50 [21] was 9.7 µM (active).
For CCOc1ccc([N+](=O)[O-])cc1CNCCc1ccccc1, the IC50 [4] was > 29.9 µM (inactive), the EC50 [5] was 0.337 µM (active) and the IC50 [6] was 4.18 µM (active). For the same compound, the EC50 [7] was > 29.9 µM (inactive).
With Clc1ccc(-n2ncc3c(NCCN4CCOCC4)ncnc32)cc1 the IC50 [1] was 35.7 µM (inactive).
For Clc1ccc(C(c2nnnn2CCc2ccccc2)N2CCSCC2)cc1 (stereo not drawn), the EC50 [22] was 8.87 µM (active), the AC50 [23] was 2 µM (active) and the AC50 [24] was 62.2 µM (active). For the same compound, the AC50 [25] was 7.63 µM (active), the AC50 [26] was 4.45 µM (active) and the AC50 [27] was 1.14 µM (active).
